Patent publication US20250313533A1, “QUINOLINE CARBOXYLIC ACID ESTER COMPOUND AND PREPARATION METHOD AND USE THEREOF” (priority 2019, published 2025)

Experiments:
[1] = system: pathogenic bacteria causing bacterial angular leaf spot in cucumbers; test: In vitro bactericidal activity, bacterial angular leaf spot in cucumbers; assay type: cell-based, pseudomonas; details: read-out: inhibitory rate; for inhibition at 1 ppm: dosage 1 ppm; for inhibition at 5 ppm: dosage 5 ppm
Procedure: (§1) Under aseptic conditions, equal amounts of NB culture medium were added to test tubes, and fixed amounts of the sample solutions were pipetted into the above test tubes in an ascending order of concentrations, respectively. The mixtures were well mixed and added with equal amounts of a bacterial suspension in log phase.
(§2) Each step of the procedure was repeated 4 times. After mixing, the mixture samples were incubated in the dark in a shaking incubator at 25° C. The OD values were measured when the bacteria were in log phase.

[2] = system: pathogenic bacteria causing bacterial wilt in tobacco; test: whole plant or invertebrate; assay type: cell-based, ralstonia; details: read-out: inhibitory rate
[3] = system: pathogenic bacteria causing black shank in potatoes; test: In vitro bactericidal activity, black shank in potatoes; assay type: cell-based; details: read-out: inhibitory rate; for inhibition at 1 ppm: dosage 1 ppm; for inhibition at 5 ppm: dosage 5 ppm
Procedure: as §1, §2

[4] = system: pathogenic bacteria causing stem rot in sweet potatoes; test: In vitro bactericidal activity, stem rot in sweet potatoes; assay type: cell-based, dikia; details: read-out: inhibitory rate; for inhibition at 1 ppm: dosage 1 ppm; for inhibition at 5 ppm: dosage 5 ppm
Procedure: as §1, §2

[5] = system: pathogenic bacteria causing bacterial blight in rice; test: whole plant or invertebrate; assay type: cell-based, xanthomonas; details: read-out: inhibitory rate
[6] = system: pathogenic bacteria causing fruit blotch in watermelons; test: In vitro bactericidal activity, fruit blotch in watermelons; assay type: cell-based, acidovorax; details: read-out: inhibitory rate; for inhibition at 1 ppm: dosage 1 ppm; for inhibition at 5 ppm: dosage 5 ppm
Procedure: as §1, §2

[7] = system: pathogenic bacteria causing black rot in Chinese cabbages; test: In vitro bactericidal activity, black rot in Chinese cabbages; assay type: cell-based, xanthomonas; details: Xanthomonas, read-out: inhibitory rate; for inhibition at 1 ppm: dosage 1 ppm; for inhibition at 5 ppm: dosage 5 ppm
Procedure: as §1, §2

[8] = system: pathogenic bacteria causing bacterial wilt in cassava; test: organism not typed; assay type: cell-based; details: read-out: inhibitory rate
[9] = system: pathogenic bacteria causing fire blight in pears; test: In vitro bactericidal activity, fire blight in pears; assay type: cell-based, erwinia; details: Erwinia, read-out: inhibitory rate; for inhibition at 1 ppm: dosage 1 ppm; for inhibition at 5 ppm: dosage 5 ppm
Procedure: as §1, §2

black shank in potatoes = test: Living crops in vivo protective activity, potatoes (root irrigation); details: Solanum tuberosum, read-out: efficacy against black shank in potatoes; for pest or weed control at 5 ppm: dosage 5 ppm; for pest or weed control at 10 ppm: dosage 10 ppm
Procedure: Root irrigation was carried out on the potatoes for tests according to the designed concentration of the agents. The dosage for each plant was 200 mL and was kept consistent (also for the control). The black shank bacteria were inoculated on the second day after the application. The results were investigated according to the disease condition.

cucumber seedlings = test: Safety for plant growth after application; assay type: in vivo; details: dosage 200 ppm
Text: Taking indoor potted cucumber seedlings as an example, the influence of the compound disclosed herein on growth rate of plant height, chlorophyll content, leaf area, etc. of crops was mainly evaluated.
The results of safety and health-care effect of the compounds of the present disclosure on cucumber seedlings are shown in the following table 1: […]

[10] = system: bacterial wilt in tobacco; test: whole plant or invertebrate; details: Nicotiana tabacum, read-out: efficacy against bacterial wilt in tobacco
[11] = system: stem rot in sweet potatoes; test: whole plant or invertebrate; details: read-out: efficacy against stem rot in sweet potatoes
bacterial blight in rice = test: whole plant or invertebrate; details: Oryza sativa, read-out: efficacy against bacterial blight in rice
[12] = system: fruit blotch in watermelons; test: whole plant or invertebrate; details: read-out: efficacy against fruit blotch in watermelons
[13] = system: soft rot in Chinese cabbages; test: whole plant or invertebrate; details: 48 h, read-out: efficacy against soft rot in Chinese cabbages

SMILES | inhibition at 1 ppm [1] [%] | inhibition at 5 ppm [1] [%] | inhibition at 5 ppm [2] [%] | inhibition at 5 ppm [3] [%] | inhibition at 5 ppm [4] [%] | inhibition at 5 ppm [5] [%] | inhibition at 5 ppm [6] [%] | inhibition at 5 ppm [7] [%] | inhibition at 5 ppm [8] [%] | inhibition at 5 ppm [9] [%] | pest or weed control at 10 ppm (black shank in potatoes) [%] | safety for plant growth (discoloration, necrosis, wilt, malformation) (cucumber seedlings) | pest or weed control at 5 ppm [10] [%] | pest or weed control at 10 ppm [10] [%] | pest or weed control at 5 ppm [11] [%] | pest or weed control at 10 ppm [11] [%] | pest or weed control at 10 ppm (bacterial blight in rice) [%] | pest or weed control at 5 ppm [12] [%] | pest or weed control at 10 ppm [12] [%] | pest or weed control at 10 ppm [13] [%] | other results
COCCOC(=O)c1cn(C2CC2)c2cc(SC)c(F)cc2c1=O [Compound 381, 2-methoxyethyl 1-cyclopropyl-6-fluoro-7-methylthio-4-oxo-1,4-dihydroquinoline-3-carboxylate] | ≥ 90 | ≥ 90 | ≥ 90 | ≥ 90 | ≥ 90 | ≥ 90 | ≥ 90 | ≥ 90 | ≥ 90 | ≥ 90 | ≥ 90 | safe for plant growth | ≥ 90 | ≥ 90 | ≥ 90 | ≥ 90 | ≥ 90 | ≥ 90 | ≥ 90 | ≥ 90 | inhibition at 1 ppm [2]: ≥ 90%; inhibition at 1 ppm [3]: ≥ 90%; inhibition at 1 ppm [4]: ≥ 90%; inhibition at 1 ppm [5]: ≥ 90%; inhibition at 1 ppm [6]: ≥ 90%; inhibition at 1 ppm [7]: ≥ 90%; inhibition at 1 ppm [8]: ≥ 90%; inhibition at 1 ppm [9]: ≥ 90%; pest or weed control at 5 ppm (black shank in potatoes): ≥ 90%; pest or weed control at 5 ppm (bacterial blight in rice): ≥ 90%; pest or weed control at 5 ppm [13]: ≥ 90%
COCCOC(=O)c1cn(C2CC2)c2ccc(Cl)cc2c1=O [Compound 45, 2-methoxyethyl 6-chloro-1-cyclopropyl-4-oxo-1,4-dihydroquinoline-3-carboxylate] | ≥ 90 | ≥ 90 | ≥ 90 | ≥ 90 | ≥ 90 | ≥ 90 | ≥ 90 | ≥ 90 | ≥ 90 | ≥ 90 | ≥ 90 | safe for plant growth | ≥ 90 | ≥ 90 | ≥ 90 | ≥ 90 | ≥ 90 | ≥ 90 | ≥ 90 | ≥ 90 | inhibition at 1 ppm [2]: ≥ 90%; inhibition at 1 ppm [3]: ≥ 90%; inhibition at 1 ppm [4]: ≥ 90%; inhibition at 1 ppm [5]: ≥ 90%; inhibition at 1 ppm [6]: ≥ 90%; inhibition at 1 ppm [7]: ≥ 90%; inhibition at 1 ppm [8]: ≥ 90%; inhibition at 1 ppm [9]: ≥ 90%; pest or weed control at 5 ppm (black shank in potatoes): ≥ 80%; pest or weed control at 5 ppm (bacterial blight in rice): ≥ 80%; pest or weed control at 5 ppm [13]: ≥ 80%
O=C(OCCO)c1cn(C2CC2)c2cc(F)ccc2c1=O [Compound 194] | ≥ 80 | ≥ 90 | ≥ 90 | ≥ 90 | ≥ 90 | ≥ 90 | ≥ 90 | ≥ 90 | ≥ 90 | ≥ 90 | ≥ 90 | safe for plant growth | ≥ 90 | ≥ 90 | ≥ 90 | ≥ 90 | ≥ 90 | ≥ 90 | ≥ 90 | ≥ 90 | inhibition at 1 ppm [2]: ≥ 80%; inhibition at 1 ppm [3]: ≥ 80%; inhibition at 1 ppm [4]: ≥ 80%; inhibition at 1 ppm [5]: ≥ 80%; inhibition at 1 ppm [6]: ≥ 80%; inhibition at 1 ppm [7]: ≥ 80%; inhibition at 1 ppm [8]: ≥ 80%; inhibition at 1 ppm [9]: ≥ 80%; pest or weed control at 5 ppm (black shank in potatoes): ≥ 80%; pest or weed control at 5 ppm (bacterial blight in rice): ≥ 80%; pest or weed control at 5 ppm [13]: ≥ 80%
O=C(OCCO)c1cn(C2CC2)c2ccc(Cl)cc2c1=O [Compound 44] | ≥ 80 | ≥ 90 | ≥ 90 | ≥ 90 | ≥ 90 | ≥ 90 | ≥ 90 | ≥ 90 | ≥ 90 | ≥ 90 | ≥ 90 | safe for plant growth | ≥ 90 | ≥ 90 | ≥ 90 | ≥ 90 | ≥ 90 | ≥ 90 | ≥ 90 | ≥ 90 | inhibition at 1 ppm [2]: ≥ 80%; inhibition at 1 ppm [3]: ≥ 80%; inhibition at 1 ppm [4]: ≥ 80%; inhibition at 1 ppm [5]: ≥ 80%; inhibition at 1 ppm [6]: ≥ 80%; inhibition at 1 ppm [7]: ≥ 80%; inhibition at 1 ppm [8]: ≥ 80%; inhibition at 1 ppm [9]: ≥ 80%; pest or weed control at 5 ppm (black shank in potatoes): ≥ 80%; pest or weed control at 5 ppm (bacterial blight in rice): ≥ 80%; pest or weed control at 5 ppm [13]: ≥ 80%
COCOC(=O)c1cn(C2CC2)c2ccc(F)cc2c1=O [Compound 1, methoxymethyl 1-cyclopropyl-6-fluoro-4-oxo-1,4-dihydroquinoline-3-carboxylate] | ≥ 80 | ≥ 90 | ≥ 90 | ≥ 90 | ≥ 90 | ≥ 90 | ≥ 90 | ≥ 90 | ≥ 90 | ≥ 90 | ≥ 90 | safe for plant growth | ≥ 90 | ≥ 90 | ≥ 90 | ≥ 90 | ≥ 90 | ≥ 90 | ≥ 90 | ≥ 90 | inhibition at 1 ppm [2]: ≥ 80%; inhibition at 1 ppm [3]: ≥ 80%; inhibition at 1 ppm [4]: ≥ 80%; inhibition at 1 ppm [5]: ≥ 80%; inhibition at 1 ppm [6]: ≥ 80%; inhibition at 1 ppm [7]: ≥ 80%; inhibition at 1 ppm [8]: ≥ 80%; inhibition at 1 ppm [9]: ≥ 80%; pest or weed control at 5 ppm (black shank in potatoes): ≥ 80%; pest or weed control at 5 ppm (bacterial blight in rice): ≥ 80%; pest or weed control at 5 ppm [13]: ≥ 80%
CCOCOC(=O)c1cn(C2CC2)c2ccc(F)cc2c1=O [Compound 2] |  | ≥ 90 | ≥ 90 | ≥ 90 | ≥ 90 | ≥ 90 | ≥ 90 | ≥ 90 | ≥ 90 | ≥ 90 | ≥ 90 | safe for plant growth | ≥ 90 | ≥ 90 | ≥ 90 | ≥ 90 | ≥ 90 | ≥ 90 | ≥ 90 | ≥ 90 | 
